Ends that are not written are not given here.
Key:
E. coli CCARM1238 = test: microbe, parasite or virus in culture; assay type: cell-based, Escherichia coli; details: pH 7.4 (II); 10 mM sodium phosphate buffer, 10% LB; 37° C, 24 h; mean of 3 experiments
Excerpt: The method for peptide synthesis has been described in detail previously. E. coli ATCC 25922 (LB media), P. aeruginosa ATCC 15692 (NB+0.5% NaCl media), Listeria monocytogenes ATCC 3710 (LB media), Staphylococcus epidermidis ATCC 12228 (LB media), and S. aureus ATCC 29213 (TSB media) were obtained from the American Type Culture Collection (Manassas, VA, USA). Bacillus subtilis KCTC 1998 (LB media), Salmonella typhimurium KCTC 1926 (NB media), and Proteus vulgaris KCTC 2433 (NB media) were obtained from the Korean Collection for Type Cultures (Jeollabuk-do, Korea). E. coli CCARM 1238 was received from the Culture Collection of Antibiotic Resistant Microbes at Seoul Women’s University, Korea. Drug-resistant P. aeruginosa 3543, 3904, 3547, and 4007 and S. aureus 3126, 0027, 5157, 1635, 4761, 5159, 3359, 2122, 1630, 1870, 3511, 5156, and 3518 were resistant strains isolated from patients with otitis media in a Chonnam National University’s hospital.
The antibacterial activities of AMPs (melittin, clavaspirin, and its analogs) and conventional antibiotic drugs (erythromycin, gentamicin, ampicillin, and piperacidin) were determined using microdilution assays. Bacterial cells were cultured at 37° C in appropriate culture media at pH 5.5 or pH 7.4 until collection during the mid-log phase and suspended in 10 mM sodium phosphate buffer (pH 5.5 or pH 7.4) supplemented with 10% culture medium. Thereafter, 2× serial dilutions of each peptide (0.25–128 μM) or antibiotic (0.25–256 μM) were added to sterile 96-well plates, and aliquots of cell suspension (5 × 10^5 colony forming units (cfu)/mL) were seeded into each well. The samples were then incubated at 37° C for 24 h. At the end of the incubation, the minimum inhibitory concentrations (MICs) of the peptides were determined using a VERSA Max microplate reader (Molecular Devices Co., Sunnyvale, CA, USA) at a wavelength of 600 nm. […] MIC values were calculated as the mean of 3 independent experiments conducted in triplicate.

S. aureus ATCC 29213 = test: microbe, parasite or virus in culture
Method: To determine the MICs of CSP-4, a single colony of S. aureus ATCC 29213 was cultured at 37° C in tryptic soy broth, as well as daptomycin and linezolid, which served as commercial antibiotic positive controls. […] For each agent, the MIC was determined daily for 29 days at pH 5.5 and/or for 8 days at pH 7.4 using cells from wells containing half the MIC (1/2 MIC well). […] All MICs were determined in duplicate.

[1] = assay type: in vivo; details: 30 min; topical, 200 μg/mL, hairless mouse skin, fluorescence microscopy
Method: Topical delivery of rhodamine-labeled CSP-4 was evaluated on hairless mouse skin. Male hairless mice (6 weeks old) bred by Hoshino Laboratory Animals, Inc. (Bandou-shi, Japan) were purchased from Japan SLC, Inc. (Hamamatsu, Japan). After anesthetizing 5 mice per group (3 groups) with isoflurane, rhodamine-labeled CSP-4 (200 μg/mL) was spread on the hairless mouse skin. The skin was then examined for reactions every 5 min for 30 min. Skin tissue was collected and washed once in PBS, fixed in 4% paraformaldehyde for 12 h, dehydrated in 50% and 100% ethanol (2 h each), and washed 3 times in xylene substitute (1 h/wash). Paraffin-embedded samples were cut into 4 μm-thick sections (Microtome; Thermo Scientific, Waltham, MA, USA) and examined under a fluorescence microscope (IX71; Olympus; Tokyo, Japan).
Supplementary Figure 2: Topical application of rhodamine-labeled CSP-4 to the skin of hairless mouse. Mice were anesthetized with isoflurane and immobilized. Rhodamine-labeled CSP-4 (200 μg/ml) was then applied to the skin in a topical spread.
Diffusion of the peptide into the skin was assessed after 5, 10, 15, 20, 25 and 30 min.
Supplementary Figure 3: Observation of GUVs (PE/PG) with peptides. […] Morphological changes and calcein leakage from the GUVs was monitored. GUVs were examined under an inverted fluorescence phase contrast microscope, and images were recoded using a digital CCD camera. […]

E. coli LPS = test: Peptide-LPS binding affinity assay (dansyl polymyxin B); details: LPS 9 µg, 2.5 μM dansyl polymyxin B, 5 mM HEPES buffer pH 7.4, peptide 0.4 to 4 μM
Method: Lipoteichoic acid (LTA) and lipopolysaccharide (LPS) binding affinity assays were performed using a Perkin-Elmer LS55 fluorometer (Waltham, MA, USA). S. aureus LTA and E. coli LPS (9 µg) were incubated with 2.5 μM dansyl-polymyxin B in 5 mM HEPES buffer for 5–10 min at pH 7.4. The CSP-4 peptide was added in 0.4 μM increments from 0.4 to 4 μM. The increase in fluorescence intensity was assessed using a spectrofluorometer at an excitation wavelength of 340 nm and an emission wavelength of 482 nm (Perkin-Elmer LS55).

E. coli = test: Time-kill kinetics; assay type: cell-based; details: pH 5.5 and pH 7.4, peptides at their respective MICs
Method: E. coli were grown overnight in LB broth (pH 5.5 or pH 7.4) and diluted to an OD600 of 0.05. CSP-4 was then added so that the final concentration was either the MIC or 1/2 MIC. E. coli cells were then sampled at 1-min intervals for the first 10 min and at 10-min intervals thereafter for 2 h. The cultures were then diluted 50-fold in PBS buffer and plated on LB agar. Colonies were counted after 24 h.

## FLRFIGSVKHGKGHLVHHIGVAL-NH2 [CSP-4]
E. coli CCARM1238
  MIC: 2 µM
S. aureus ATCC 29213; after exposure for 29 passages
  MIC after 29 passages: 16 µM
S. aureus ATCC 29213; after exposure for 29 passages, pH not given
  Increase of MIC: approximately 2 ×
S. aureus ATCC 29213; exposure for up to 29 passages
  Induction of drug resistance: did not induce drug resistance
[1]
  Depth of penetration into skin: 25–40 μm
E. coli LPS
  Binding to LPS (fluorescence of dansyl polymyxin B): dose-dependent increase in fluorescence intensity
E. coli
  Killing kinetics: reduced bacterial growth faster than CSP

Reference: publication PMC5884652, “New antimicrobial peptide kills drug-resistant pathogens without detectable resistance” (Oncotarget, 2018)
